Test system: A549
Assay: Antiproliferative against human A549 cells assessed as viable cells pretreated with MS023 for 24 hrs followed by compound addition at 10 uM measured after for 24 hrs relative to control
Settings: A549, 24 h, read-out: Activity

Row | Compound | viability at 10 µM [%]
1 | CCCCCCCc1ccc(CCc2cccc(O)c2C(=O)O)cc1 | 54.2
2 | O=C(c1cncc(Br)c1)N1CCC(N2CCCC2)CC1 | 54.2
3 | N#CC[C@@H](C1CCCC1)n1cc(-c2ncnc3[nH]ccc23)cn1 | 54.2
4 | O=C(c1ccc(Cl)cc1Cl)n1nnc2ccccc21 | 54.2
5 | CN(C)CCCNC(=O)c1ccc(-c2cc(O)c3ncccc3c2)cc1 | 54.2
6 | CN(C)c1ccc(C(=O)NCCCCCCC(=O)NO)cc1 | 54.2
7 | Cc1cc(Cl)ccc1OCCCC(=O)NO | 54.2
8 | O=C(O)[C@H](Cc1c[nH]c2ccccc12)N1C(=O)c2ccccc2C1=O | 54.2
9 | Cc1cc(Nc2nc(N[C@@H](C)c3ccc(F)cc3)c(C#N)cc2F)n[nH]1 | 54.2
10 | COc1cc2c(NC3CCN(CC4CCCCC4)CC3)nc(N3CCCN(C(C)C)CC3)nc2cc1OCCCN1CCCCC1 | 54.2
11 | O=C1NC(=O)/C(=C/c2cccc(C(F)(F)F)c2)S1 | 54.2
12 | Cc1sc2c(c1C)C(c1ccc(Cl)cc1)=N[C@@H](CC(=O)OC(C)(C)C)c1nnc(C)n1-2 | 54.2
13 | Clc1ccc(N/N=C(\c2ccccc2)c2ccccn2)nc1 | 54.2
14 | N[C@@H]1CCCN(c2c(/C=C3\SC(=O)NC3=O)cccc2-c2ccccc2)C1 | 54.2
15 | CN1CCN(c2cccc(Nc3nc4c(-c5ccc(S(C)(=O)=O)cc5)cccn4n3)c2)CC1 | 54.2
16 | COc1ccc(Cn2ccc3ccc(C(=O)NO)cc32)cc1 | 54.2
17 | CC(=O)N1c2ccc(-c3ccc(C(=O)O)cc3)cc2[C@H](Nc2ccc(Cl)cc2)C[C@@H]1C | 54.2
18 | COc1ccccc1S(=O)(=O)Nc1ccc2c(c1)CN(C)C(=O)N2 | 54.2
19 | COc1ccc(C(=O)C2CCN(CC(=O)N(Cc3nc4c(c(=O)[nH]3)COCC4)CC3CC3)CC2)cc1 | 54.2
20 | O=C(c1ccc(C(=O)N2CCC(N3CCCC3)CC2)c(Nc2ccccc2)c1)N1CCC(N2CCCC2)CC1 | 54.2
21 | Cc1cc(/N=N/c2ccc(S(=O)(=O)Nc3ccccn3)cc2)c(N)cc1O | 54.2
22 | CC(C)N(CCCNC(=O)Nc1ccc(C(C)(C)C)cc1)C[C@H]1O[C@@H](n2cc(Br)c3c(N)ncnc32)[C@H](O)[C@@H]1O | 54.2

Row | Compound | viability at 10 µM [%]
23 | COc1cc2c(cc1OCCCN1CCCC1)N=C(N)C21CCC1 | 54.2
24 | O=C(NCC1(c2nc(-c3ccccc3)cs2)CCOCC1)c1cccc(-c2noc(C(F)(F)F)n2)c1 | 54.2
25 | CCOC(=O)Nc1cc(-c2ccc(C)c(NS(C)(=O)=O)c2)nn2c(C)nnc12 | 54.2
26 | O=C(O)CNC(=O)c1c(O)c2ccccc2n(Cc2ccccc2)c1=O | 54.2
27 | O=C(O)CCNc1cc(N2CCc3ccccc3CC2)nc(-c2ccccn2)n1 | 54.2
28 | CCCc1cc2c(N3CCN(C4=NCC(C)(C)S4)CC3)ncnc2s1 | 54.2
29 | COc1cc(C)[nH]c(=O)c1CNC(=O)c1c(C)n([C@H](C)C2CCOCC2)c2ccccc12 | 54.2
30 | CCS(=O)(=O)N1CCC([C@@H](C)n2c(C)c(C(=O)NCc3c(OC)cc(C)[nH]c3=O)c3ccccc32)CC1 | 54.2
31 | COc1ccc(CCc2nc3cc(-c4c(C)noc4C)ccc3n2C[C@H](C)N2CCOCC2)cc1Cl | 54.2
32 | CCN(c1cc(C#CCN2CCOCC2)cc(C(=O)NCc2c(C)cc(C)[nH]c2=O)c1C)[C@H]1CC[C@H](N(C)CCOC)CC1 | 54.2
33 | CC(C)c1cc2c(N3CCN(C4=NCC(C)(C)S4)CC3)ncnc2s1 | 54.2
34 | CC1=NN(c2ccc(C(=O)O)cc2)C(=O)/C1=C/c1ccc(-c2cc(C)c(C)cc2[N+](=O)[O-])o1 | 54.2
35 | CCCOc1ccn2c(C(C)=O)cc(-c3ccccc3S(C)(=O)=O)c2c1 | 54.2
36 | O=C(/C=C/N1C[C@H]2C[C@@H]1CN2c1ccccn1)c1ccccc1O | 54.2
37 | CCn1cc(-c2cccc(C(F)(F)F)c2)c2sc(C(=N)NC3CCS(=O)(=O)CC3)cc2c1=O | 54.2
38 | CN1CCc2c(c3ccccc3n2Cc2ccc(C(=O)NO)cc2)C1 | 54.2
39 | COc1cc(-c2cn(C)c(=O)c3cnccc23)cc(OC)c1CN(C)C | 54.2
40 | CCC(CC)(NC(=O)C(C)C)C(=O)N[C@@H](CCCNC(=N)N)C(=O)NC1(C(=O)NC(c2ccc(F)cc2)c2ccc(F)cc2)CCCC1 | 54.2
41 | Cc1cc(C)c(CNC(=O)c2cc(-c3ccc(N4CCN(C)CC4)nc3)cc3c2c(C)cn3C(C)C)c(=O)[nH]1 | 54.2
42 | COC(=O)c1ccc2c(c1)nc(NC(=O)c1ccccc1)n2CCCc1ccccc1 | 54.2
43 | N#Cc1ccc(-c2csc(NN=C3CCCC3)n2)cc1 | 54.2
44 | O=C(NC[C@H](O)CN1CCc2ccccc2C1)c1cc(NC2COC2)ncn1 | 54.2

Row | Compound | viability at 10 µM [%]
45 | O=C(COc1cccc2c(=O)[nH]ccc12)c1ccccc1 | 54.2
46 | Cc1cc(N2C[C@@H](C)N[C@@H](C)C2)ncc1-c1ccc(-c2nc3c(ccn3C)c(=O)[nH]2)cc1 | 54.2
47 | NC(=O)C1CCCc2c1[nH]c1ccc(Cl)cc21 (stereo unspecified) | 54.2
48 | c1ccc([C@@H]2C[C@H]2NC2CCNCC2)cc1 | 54.2
49 | N[C@H]1C[C@@H]1c1ccc(-c2cccc(O)c2)cc1 | 54.2
50 | Cc1sc2c(c1C)C(c1ccc(Cl)cc1)=N[C@@H](CC(N)=O)c1nnc(C)n1-2 | 54.2
51 | O=C(NC[C@H](O)CN1CCc2ccccc2C1)c1ccnc(NC2CCC2)c1 | 54.2
52 | N[C@H]1CC[C@H](N[C@@H]2C[C@H]2c2ccccc2)CC1 | 54.2
53 | Fc1cc(-c2cccc3ncc(-c4cnn(C5CCNCC5)c4)nc23)cc(F)c1CN1CCOCC1 | 54.2
54 | COc1cc2ncnc(Nc3ccc(O)c(Br)c3)c2cc1OC | 54.2
55 | CCCCCCCCCC(=O)N[C@@H](Cc1c[nH]c2ccccc12)C(=O)N[C@H](CC(N)=O)C(=O)N[C@@H](CC(=O)O)C(=O)N[C@@H]1C(=O)NCC(=O)N[C@@H](CCCN)C(=O)N[C@@H](CC(=O)O)C(=O)N[C@H](C)C(=O)N[C@@H](CC(=O)O)C(=O)NCC(=O)N[C@H](CO)C(=O)N[C@@H]([C@H](C)CC(=O)O)C(=O)N[C@@H](CC(=O)c2ccccc2N)C(=O)O[C@@H]1C | 54.2
56 | CCN1CCN(C(=O)Cc2ccc(Nc3ncc(F)c(Nc4ccc(C(=O)Nc5ccccc5Cl)cc4)n3)cc2)CC1 | 54.2
57 | CN(CC[C@H](N)CC(=O)N[C@H]1C=C[C@H](n2ccc(N)nc2=O)O[C@@H]1C(=O)O)C(=N)N | 54.2
58 | CC(C)N(CCC(=O)c1ccc2ccccc2c1)Cc1ccccc1 | 54.2
59 | COc1cc2nc(N3CCCN(C)CC3)nc(NC3CCN(Cc4ccccc4)CC3)c2cc1OC | 54.2
60 | COc1cc2c(cc1NS(=O)(=O)c1ccc(Br)cc1C)n(C)c(=O)n2C | 54.2
61 | Nc1nccc2c1ncn2[C@@H]1C=C(CO)[C@@H](O)[C@H]1O | 54.2
62 | O=C(O)c1ccc(CN2CCC(CN[C@@H]3C[C@H]3c3ccccc3)CC2)cc1 | 54.2
63 | NC1=NC(=O)/C(=C\c2ccc(O)cc2)S1 | 54.2
64 | CCOC(=O)CCNc1cc(N2CCc3ccccc3CC2)nc(-c2ccccn2)n1 | 54.2
65 | CCCOc1ccc(CCc2nc3cc(-c4c(C)noc4C)ccc3n2CCN2CCOCC2)cc1 | 54.2
66 | CN(C)Cc1ccc(-c2nc3cccc4c3n2CCNC4=O)cc1 | 54.2

Source: ChEMBL document CHEMBL5712922, “Synergistic effects of type I PRMT and PARP inhibitors against non-small cell lung cancer cells” (Clin Epigenetics, 2021)
